Results: ChEMBL document CHEMBL3991601, “The target landscape of clinical kinase drugs” (Science, 2017)
Calls of active or inactive are those of the source.

What was measured:
[1] = target: Activin receptor type-1-like (Homo sapiens, UniProt P37023)
[2] = target: Tyrosine-protein kinase JAK2 (Homo sapiens, UniProt O60674)
[3] = target: Dual specificity tyrosine-phosphorylation-regulated kinase 1B (Homo sapiens, UniProt Q9Y463)
[4] = target: Serine/threonine-protein kinase 38-like (Homo sapiens, UniProt Q9Y2H1)
[5] = target: T1, Tyrosine-protein kinase Mer (Homo sapiens, UniProt Q12866)
T1 sequence (Q12866 whole entry): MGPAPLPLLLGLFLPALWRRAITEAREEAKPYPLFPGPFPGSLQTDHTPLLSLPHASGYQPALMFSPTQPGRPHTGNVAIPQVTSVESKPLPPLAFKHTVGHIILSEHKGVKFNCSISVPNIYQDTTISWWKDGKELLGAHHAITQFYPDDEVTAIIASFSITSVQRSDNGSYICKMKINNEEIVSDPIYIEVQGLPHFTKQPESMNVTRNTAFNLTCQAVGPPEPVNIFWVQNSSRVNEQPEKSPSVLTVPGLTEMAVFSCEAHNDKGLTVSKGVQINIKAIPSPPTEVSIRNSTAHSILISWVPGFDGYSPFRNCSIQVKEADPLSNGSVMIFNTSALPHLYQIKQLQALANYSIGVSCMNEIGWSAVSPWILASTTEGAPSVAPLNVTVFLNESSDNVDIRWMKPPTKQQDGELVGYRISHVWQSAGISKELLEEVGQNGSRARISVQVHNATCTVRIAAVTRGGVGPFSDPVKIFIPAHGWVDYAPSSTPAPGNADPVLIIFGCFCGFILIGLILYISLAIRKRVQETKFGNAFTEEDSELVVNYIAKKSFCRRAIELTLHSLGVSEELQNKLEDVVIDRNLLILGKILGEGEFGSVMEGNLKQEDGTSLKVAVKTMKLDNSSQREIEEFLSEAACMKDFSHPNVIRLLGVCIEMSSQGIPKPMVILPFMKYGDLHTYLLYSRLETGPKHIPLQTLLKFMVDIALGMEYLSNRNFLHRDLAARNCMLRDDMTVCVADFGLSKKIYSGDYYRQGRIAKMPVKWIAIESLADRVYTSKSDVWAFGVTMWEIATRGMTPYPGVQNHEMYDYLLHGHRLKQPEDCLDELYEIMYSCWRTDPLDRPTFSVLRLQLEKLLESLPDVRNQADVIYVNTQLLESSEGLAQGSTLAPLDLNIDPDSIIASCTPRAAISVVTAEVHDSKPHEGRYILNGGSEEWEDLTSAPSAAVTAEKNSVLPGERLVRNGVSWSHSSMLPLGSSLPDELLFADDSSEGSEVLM

[6] = target: 5'-AMP-activated protein kinase subunit gamma-1 (Homo sapiens, UniProt P54619)
[7] = target: T2, Uncharacterized protein FLJ45252 (Homo sapiens, UniProt Q6ZSR9)
T2 sequence (Q6ZSR9 whole entry): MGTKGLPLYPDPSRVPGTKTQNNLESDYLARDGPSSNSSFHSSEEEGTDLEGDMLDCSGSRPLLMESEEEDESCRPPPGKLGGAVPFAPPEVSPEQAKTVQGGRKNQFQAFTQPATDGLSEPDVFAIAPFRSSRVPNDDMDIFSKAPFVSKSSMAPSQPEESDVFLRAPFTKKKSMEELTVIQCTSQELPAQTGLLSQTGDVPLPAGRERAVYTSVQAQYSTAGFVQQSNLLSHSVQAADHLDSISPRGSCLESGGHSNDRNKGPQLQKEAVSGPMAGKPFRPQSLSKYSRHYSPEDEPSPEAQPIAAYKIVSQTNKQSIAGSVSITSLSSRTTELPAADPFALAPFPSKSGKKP

Misshapen-like kinase 1 = Misshapen-like kinase 1 (Homo sapiens, UniProt Q8N4C8)
[8] = target: 5'-AMP-activated protein kinase subunit gamma-2 (Homo sapiens, UniProt Q9UGJ0)
[9] = target: Nucleoside diphosphate kinase B (Homo sapiens, UniProt P22392)
[10] = target: Eukaryotic peptide chain release factor GTP-binding subunit ERF3B (Homo sapiens, UniProt Q8IYD1)
[11] = target: Putative nucleoside diphosphate kinase (Homo sapiens, UniProt O60361)
[12] = target: Serine/threonine-protein kinase 38 (Homo sapiens, UniProt Q15208)
[13] = target: ALK tyrosine kinase receptor (Homo sapiens, UniProt Q9UM73); assay type: subcellular, K-562, COLO 205, SK-N-BE(2) and MV-4-11, Cell lysate; conditions: read-out: Kd apparent
Note: in the data inactive means no Kd found up to 30 µM.

Chain of Serine/threonine-protein kinase 38 (Q15208 whole entry): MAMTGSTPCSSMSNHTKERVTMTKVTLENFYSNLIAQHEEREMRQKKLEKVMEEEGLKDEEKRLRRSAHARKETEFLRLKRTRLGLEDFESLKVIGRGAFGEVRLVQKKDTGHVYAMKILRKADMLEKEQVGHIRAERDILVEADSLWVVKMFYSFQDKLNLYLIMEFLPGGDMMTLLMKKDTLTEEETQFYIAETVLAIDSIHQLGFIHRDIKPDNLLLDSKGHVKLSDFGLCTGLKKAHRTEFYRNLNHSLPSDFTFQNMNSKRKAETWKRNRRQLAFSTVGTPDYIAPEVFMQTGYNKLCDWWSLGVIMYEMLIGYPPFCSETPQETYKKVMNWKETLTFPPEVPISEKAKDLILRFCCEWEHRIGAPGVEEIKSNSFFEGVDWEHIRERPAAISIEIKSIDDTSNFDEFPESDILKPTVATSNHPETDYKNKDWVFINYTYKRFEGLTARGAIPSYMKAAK
Chain of 5'-AMP-activated protein kinase subunit gamma-1 (P54619 whole entry): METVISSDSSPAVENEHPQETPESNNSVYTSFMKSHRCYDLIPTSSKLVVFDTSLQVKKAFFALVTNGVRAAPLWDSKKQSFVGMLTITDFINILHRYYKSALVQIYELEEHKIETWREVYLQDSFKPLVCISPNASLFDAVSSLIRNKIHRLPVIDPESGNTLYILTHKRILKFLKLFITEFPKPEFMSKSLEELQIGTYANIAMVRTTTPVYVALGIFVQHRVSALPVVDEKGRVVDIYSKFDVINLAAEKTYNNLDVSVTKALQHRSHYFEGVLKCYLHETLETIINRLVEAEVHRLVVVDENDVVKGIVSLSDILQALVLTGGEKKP
Chain of 5'-AMP-activated protein kinase subunit gamma-2 (Q9UGJ0 whole entry): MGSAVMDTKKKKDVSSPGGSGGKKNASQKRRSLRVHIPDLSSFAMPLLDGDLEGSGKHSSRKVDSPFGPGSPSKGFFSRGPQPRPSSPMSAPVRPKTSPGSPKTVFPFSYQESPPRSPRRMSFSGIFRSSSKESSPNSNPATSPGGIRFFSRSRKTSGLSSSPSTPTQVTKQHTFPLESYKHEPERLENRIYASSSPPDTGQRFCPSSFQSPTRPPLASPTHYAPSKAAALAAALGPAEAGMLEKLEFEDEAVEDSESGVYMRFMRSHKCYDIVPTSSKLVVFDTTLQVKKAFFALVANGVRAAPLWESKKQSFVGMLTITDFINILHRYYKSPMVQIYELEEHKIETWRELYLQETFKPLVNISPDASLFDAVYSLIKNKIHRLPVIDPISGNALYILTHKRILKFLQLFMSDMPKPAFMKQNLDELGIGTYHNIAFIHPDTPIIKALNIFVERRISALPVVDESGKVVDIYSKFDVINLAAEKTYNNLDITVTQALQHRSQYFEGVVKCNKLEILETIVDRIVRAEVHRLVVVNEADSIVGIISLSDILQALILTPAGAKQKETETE
Chain of Putative nucleoside diphosphate kinase (O60361 whole entry): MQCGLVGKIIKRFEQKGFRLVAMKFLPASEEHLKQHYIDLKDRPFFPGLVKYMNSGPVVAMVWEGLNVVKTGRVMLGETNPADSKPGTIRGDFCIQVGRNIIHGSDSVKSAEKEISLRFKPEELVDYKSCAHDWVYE
Chain of Tyrosine-protein kinase JAK2 (O60674 whole entry): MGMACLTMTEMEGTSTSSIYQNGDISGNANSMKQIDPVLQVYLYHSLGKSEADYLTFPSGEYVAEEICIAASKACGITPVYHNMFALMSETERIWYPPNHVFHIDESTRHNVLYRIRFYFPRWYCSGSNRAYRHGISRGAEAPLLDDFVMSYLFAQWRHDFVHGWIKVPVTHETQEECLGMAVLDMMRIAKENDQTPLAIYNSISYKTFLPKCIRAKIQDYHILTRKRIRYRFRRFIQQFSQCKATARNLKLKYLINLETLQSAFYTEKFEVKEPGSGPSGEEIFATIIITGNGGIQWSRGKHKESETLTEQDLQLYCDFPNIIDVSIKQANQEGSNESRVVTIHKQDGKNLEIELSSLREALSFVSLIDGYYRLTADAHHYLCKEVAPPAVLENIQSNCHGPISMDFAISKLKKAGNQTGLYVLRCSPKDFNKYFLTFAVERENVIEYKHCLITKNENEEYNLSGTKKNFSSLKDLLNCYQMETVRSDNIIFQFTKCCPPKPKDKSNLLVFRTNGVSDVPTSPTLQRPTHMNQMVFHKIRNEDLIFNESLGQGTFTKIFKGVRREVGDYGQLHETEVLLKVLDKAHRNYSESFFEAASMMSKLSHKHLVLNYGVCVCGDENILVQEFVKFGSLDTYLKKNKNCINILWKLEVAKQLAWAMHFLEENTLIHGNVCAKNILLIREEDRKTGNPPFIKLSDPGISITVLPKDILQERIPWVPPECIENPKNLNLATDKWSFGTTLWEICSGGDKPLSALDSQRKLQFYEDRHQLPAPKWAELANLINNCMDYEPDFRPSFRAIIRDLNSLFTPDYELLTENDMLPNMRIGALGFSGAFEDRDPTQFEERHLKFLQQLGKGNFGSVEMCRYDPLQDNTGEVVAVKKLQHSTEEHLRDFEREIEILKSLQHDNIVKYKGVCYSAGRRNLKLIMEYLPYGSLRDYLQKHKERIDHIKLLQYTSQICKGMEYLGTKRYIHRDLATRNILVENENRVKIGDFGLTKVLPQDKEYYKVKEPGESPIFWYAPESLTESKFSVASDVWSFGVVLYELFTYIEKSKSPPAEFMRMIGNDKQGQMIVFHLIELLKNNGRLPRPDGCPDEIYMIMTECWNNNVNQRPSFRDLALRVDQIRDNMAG
Chain of Serine/threonine-protein kinase 38-like (Q9Y2H1 whole entry): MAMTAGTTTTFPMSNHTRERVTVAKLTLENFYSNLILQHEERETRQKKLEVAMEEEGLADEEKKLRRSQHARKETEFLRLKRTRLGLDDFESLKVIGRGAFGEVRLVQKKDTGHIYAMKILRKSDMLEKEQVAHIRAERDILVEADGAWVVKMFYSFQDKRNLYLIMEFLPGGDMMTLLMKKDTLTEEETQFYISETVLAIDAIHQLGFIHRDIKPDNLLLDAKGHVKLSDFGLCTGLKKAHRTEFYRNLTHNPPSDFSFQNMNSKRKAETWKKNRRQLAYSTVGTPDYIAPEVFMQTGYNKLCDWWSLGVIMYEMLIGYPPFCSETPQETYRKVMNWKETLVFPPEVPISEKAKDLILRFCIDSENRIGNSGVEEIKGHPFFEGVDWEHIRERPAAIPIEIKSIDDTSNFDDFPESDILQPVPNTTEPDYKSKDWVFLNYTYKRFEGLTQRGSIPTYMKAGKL
Chain of Nucleoside diphosphate kinase B (P22392 whole entry): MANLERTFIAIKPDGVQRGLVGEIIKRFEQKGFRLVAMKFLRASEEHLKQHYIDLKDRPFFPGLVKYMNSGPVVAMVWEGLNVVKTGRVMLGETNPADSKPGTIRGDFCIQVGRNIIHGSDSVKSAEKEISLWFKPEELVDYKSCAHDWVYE
Chain of Activin receptor type-1-like (P37023 whole entry): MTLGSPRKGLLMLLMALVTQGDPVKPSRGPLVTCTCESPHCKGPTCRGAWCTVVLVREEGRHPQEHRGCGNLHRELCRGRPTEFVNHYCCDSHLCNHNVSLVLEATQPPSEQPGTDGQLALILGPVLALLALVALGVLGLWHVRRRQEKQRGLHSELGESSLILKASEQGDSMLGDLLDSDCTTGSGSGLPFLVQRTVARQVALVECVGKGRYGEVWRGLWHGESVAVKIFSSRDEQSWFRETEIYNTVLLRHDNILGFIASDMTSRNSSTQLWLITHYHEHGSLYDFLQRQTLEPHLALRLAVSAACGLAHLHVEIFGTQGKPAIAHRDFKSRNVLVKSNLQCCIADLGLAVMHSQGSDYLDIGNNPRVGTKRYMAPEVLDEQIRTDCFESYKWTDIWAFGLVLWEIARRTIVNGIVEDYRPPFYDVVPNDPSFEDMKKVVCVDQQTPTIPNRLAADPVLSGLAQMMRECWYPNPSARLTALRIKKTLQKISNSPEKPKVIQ
Chain of Dual specificity tyrosine-phosphorylation-regulated kinase 1B (Q9Y463 whole entry): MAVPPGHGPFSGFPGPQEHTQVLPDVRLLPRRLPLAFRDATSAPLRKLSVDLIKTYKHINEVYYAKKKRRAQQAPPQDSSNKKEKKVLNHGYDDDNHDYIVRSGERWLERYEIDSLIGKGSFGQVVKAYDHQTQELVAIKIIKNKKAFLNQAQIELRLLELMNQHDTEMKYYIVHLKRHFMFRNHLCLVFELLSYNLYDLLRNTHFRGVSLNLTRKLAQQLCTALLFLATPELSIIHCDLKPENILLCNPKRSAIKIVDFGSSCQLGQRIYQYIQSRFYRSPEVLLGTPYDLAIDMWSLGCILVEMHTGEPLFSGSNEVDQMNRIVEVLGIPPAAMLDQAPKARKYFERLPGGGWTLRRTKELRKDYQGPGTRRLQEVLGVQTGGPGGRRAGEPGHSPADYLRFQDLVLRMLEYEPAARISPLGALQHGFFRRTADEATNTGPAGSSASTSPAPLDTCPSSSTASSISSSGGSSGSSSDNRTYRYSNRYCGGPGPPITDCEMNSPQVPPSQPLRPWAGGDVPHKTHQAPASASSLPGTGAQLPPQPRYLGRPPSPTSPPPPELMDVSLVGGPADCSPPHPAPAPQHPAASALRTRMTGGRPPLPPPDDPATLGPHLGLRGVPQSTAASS

SMILES | Kd [2] | Kd [4] | Kd [5] | Kd [6] | Kd [7] | Kd [8] | Kd [12] | Kd [9] | Kd [11] | also measured
CCOc1ccn(-c2ccc(F)cc2)c(=O)c1C(=O)Nc1ccc(Oc2ccnc(N)c2Cl)c(F)c1 [BMS-777607] | – | > 30 µM (inactive) | – | > 30 µM (inactive) | > 30 µM (inactive) | – | – | – | – | Kd (Misshapen-like kinase 1): > 30 µM (inactive)
COc1cc2c(Oc3ccc4[nH]c(C)cc4c3F)ncnc2cc1OCCCN1CCCC1 [CEDIRANIB] | – | – | – | > 30 µM (inactive) | > 30 µM (inactive) | > 30 µM (inactive) | – | – | – | –
C=CC(=O)Nc1cc(Nc2nccc(-c3cn(C)c4ccccc34)n2)c(OC)cc1N(C)CCN(C)C [OSIMERTINIB] | – | – | – | > 30 µM (inactive) | > 30 µM (inactive) | > 30 µM (inactive) | > 30 µM (inactive) | > 30 µM (inactive) | > 30 µM (inactive) | Kd [10]: > 30 µM (inactive); Kd (Misshapen-like kinase 1): > 30 µM (inactive)
FC(F)(F)c1ccc(CNc2ccc(Cc3c[nH]c4ncc(Cl)cc34)cn2)cn1 [PEXIDARTINIB] | – | > 30 µM (inactive) | > 30 µM (inactive) | > 30 µM (inactive) | 1.45 µM (active) | > 30 µM (inactive) | – | – | – | Kd [13]: > 30 µM (inactive)
CN(c1ncccc1CNc1nc(Nc2ccc3c(c2)CC(=O)N3)ncc1C(F)(F)F)S(C)(=O)=O [PF-00562271] | – | – | – | – | – | – | – | > 30 µM (inactive) | 0.862 µM | –
NC(=O)c1ccc(N(C(N)=O)c2c(F)cccc2F)nc1-c1ccc(F)cc1F [VX-702] | – | > 30 µM (inactive) | – | – | – | – | > 30 µM (inactive) | > 30 µM (inactive) | > 30 µM (inactive) | Kd [13]: 0.002 µM

Now from value to compound, other results behind:

Kd [2] | Kd [4] | Kd [5] | Kd [6] | Kd [7] | Kd [8] | Kd [12] | SMILES | Kd [9] | Kd [11] | also measured
> 30 µM (inactive) | > 30 µM (inactive) | > 30 µM (inactive) | – | – | – | – | COc1ccc2c(OCc3nnc4ccc(-c5ccccc5)nn34)ccnc2c1 [AMG-208] | – | – | Kd [1]: > 30 µM (inactive); Kd [3]: > 30 µM (inactive)
> 30 µM (inactive) | – | – | – | – | – | > 30 µM (inactive) | Cn1c(=O)c(F)c(Nc2ccc(I)cc2F)c2c(=O)n(C[C@@H](O)CO)cnc21 [TAK-733] | > 30 µM (inactive) | – | –
> 30 µM (inactive) | > 30 µM (inactive) | > 30 µM (inactive) | – | – | – | > 30 µM (inactive) | CNC(=O)c1cccc(-c2ccc3c(N4CCOC[C@@H]4C)nc(N4CCOC[C@@H]4C)nc3n2)c1 [VISTUSERTIB] | – | – | Kd [1]: > 30 µM (inactive); Kd [3]: > 30 µM (inactive)
